Patent publication US20090131462A1, “Fungicidally Active Agent” (BASF AKTIENGESELLSCHAFT, priority 2005, published 2009)

Test system: Pyrenophora teres
Assay: Activity against net blotch of barley caused by Pyrenophora teres, 2-day protective application
Format: in vivo
Conditions: individual active compound, barley seedlings cultivar Hanna, inoculated 48 hours after spraying, evaluated after 6 days
Description: The active compounds were used either as a commercial formulation or employed as a stock solution. The stock solution was prepared from 25 mg of active compound which had been made up to 10 ml using a mixture of acetone and/or DMSO as solvent and the emulsifier Uniperol® EL (wetting agent having emulsifying and dispersing action based on ethoxylated alkylphenols) in a volume ratio of solvent to emulsifier of 99:1. The volume was then made up to 100 ml using water.
Evaluation was carried out by visually determining the infected leaf areas in %. These percentages were converted into efficacies in % of the untreated control. At an efficacy of 0, the infection of the treated plants corresponds to that of the untreated control plants; at an efficacy of 100, the treated plants are not infected.
The expected efficacies for active compound combinations were determined using Colby's formula (Colby, S. R., “Calculating synergistic and antagonistic responses of herbicide combinations”, Weeds, 15, pp. 20-22, 1967) and compared to the observed efficacies.
Colby's formula: E=x+y−xy/100
E expected efficacy, expressed in % of the untreated control, when using the mixture of the active compounds A and B at the concentrations a and b x efficacy, expressed in % of the untreated control, when using the active compound A at the concentration a y efficacy, expressed in % of the untreated control, when using the active compound B at the concentration b Activity against net blotch of barley caused by Pyrenophora teres, 2-day protective application Leaves of potted barley seedlings of the cultivar “Hanna” were sprayed to runoff point with an aqueous suspension having the concentration of active compound stated below. 48 hours after the spray coating had dried on, the test plants were inoculated with an aqueous spore suspension of Pyrenophora teres (synonym Drechslera teres), the net blotch pathogen. […] After 6 days, the extent of the development of the disease was determined visually in % infection of the total leaf area.

`CC(C)CC(C)c1sccc1NC(=O)c1cn(C)nc1C(F)(F)F` (stereo not drawn) [compound A, N-[2-(1,3-dimethylbutyl)-3-thienyl]-1-methyl-3-(trifluoromethyl)-1H-pyrazole-4-carboxamide] gave an Efficacy (4 ppm in the spray liquor, % of the untreated control) of 22% and an Efficacy (concentration in the spray liquor printed as 0 ppm) of 0.5%.
metiram showed an Efficacy (250 ppm in the spray liquor) of 0%.
